# Reference: patent publication US9221765B2, “Inhibition and dispersion of bacterial biofilms with benzimidazole derivatives” (North Carolina State University, priority 2009, dated 2015)
# Where a name gives a salt, the structure may show the parent alone. Read-outs that look alike come from different tables or passages of the source.
# Legend:
# MRSA [1] = test: Dispersion of preformed MRSA biofilm; type: cell-based, Staphylococcus aureus; settings: concentration that disperses 50% of a pre-formed biofilm
# Experimental: (§1) A dose-response study was then initiated in which both the IC50 and EC50 value of each compound towards the bacterial strains were determined (Table 1). Here, IC50 is defined as the concentration of compound that inhibits 50% biofilm development while EC50 is defined as the concentration of compound that disperses 50% of a pre-formed biofilm.
# (§2) Procedure to Determine the Dispersal Effect of Test Compounds on E. faecium, MRSA and S. epidermidis Preformed Biofilms:
# (§3) Dispersion assays were performed by taking an overnight culture of bacterial strain and subculturing it at an OD600 of 0.01 into the necessary media (brain heart infusion for E. faecium, tryptic soy broth with a 0.5% glucose supplement (TSBG) for MRSA and tryptic soy broth with a 0.5% glucose supplement and a 3.0% NaCl supplement (TGN) for S. epidermidis. The resulting bacterial suspension was aliquoted (100 μL) into the wells of a 96-well PVC microtiter plate. Plates were then wrapped in GLAD Press n′ Seal® followed by an incubation under stationary conditions at ambient temperature to establish the biofilms. After 24 h, the media was discarded from the wells and the plates were washed thoroughly with water. Stock solutions of predetermined concentrations of the test compound were then made in the necessary media. These stock solutions were aliquoted (100 μL) into the wells of the 96-well PVC microtiter plate with the established biofilms. Media alone was added to a subset of the wells to serve as a control. Sample Plates were then incubated for 24 h at 37° C. After incubation, the media was discarded from the wells and the plates were washed thoroughly with water. Plates were then stained with 100 μL of 0.1% solution of crystal violet (CV) and then incubated at ambient temperature for 30 min. Plates were washed with water again and the remaining stain was solubilized with 200 μL of 95% ethanol. A sample of 125 μL of solubilized CV stain from each well was transferred to the corresponding wells of a polystyrene microtiter dish. Biofilm dispersion was quantitated by measuring the OD540 of each well in which a negative control lane wherein no biofilm was formed served as a background and was subtracted out.
# MRSA [2] = test: Inhibition of MRSA biofilm formation (crystal violet); type: cell-based, Staphylococcus aureus; settings: for IC50: concentration that inhibits 50% biofilm development; for ability to inhibit biofilm formation: 100 μM (highest concentration tested)
# Experimental: as §1
# (§4) Procedure to Determine the Inhibitory Effect of Test Compounds on E. faecium, MRSA, S. epidermidis, PAO1 and MDRAB Biofilm Formation:
# (§5) Inhibition assays were performed by taking an overnight culture of bacterial strain and subculturing it at an OD600 of 0.01 into the necessary media (brain heart infusion for E. faecium, tryptic soy broth with a 0.5% glucose supplement (TSBG) for MRSA, Luria-Bertani (LB) media for MDRAB, Luria-Bertani media without NaCl (LBNS) for PAO1 and tryptic soy broth with a 0.5% glucose supplement and a 3.0% NaCl supplement (TGN) for S. epidermidis. Stock solutions of predetermined concentrations of the test compound were then made in the necessary media. These stock solutions were aliquoted (100 μL) into the wells of the 96-well PVC microtiter plate. Sample plates were then wrapped in GLAD Press n′ Seal® followed by an incubation under stationary conditions for 24 h at 37° C. After incubation, the media was discarded from the wells and the plates were washed thoroughly with water. Plates were then stained with 100 μL of 0.1% solution of crystal violet (CV) and then incubated at ambient temperature for 30 min. Plates were washed with water again and the remaining stain was solubilized with 200 μL of 95% ethanol. A sample of 125 μL of solubilized CV stain from each well was transferred to the corresponding wells of a polystyrene microtiter dish. Biofilm inhibition was quantitated by measuring the OD540 of each well in which a negative control lane wherein no biofilm was formed served as a background and was subtracted out.
# as §5, with “2-(2-amino-1H-benzo[d]imidazol-6-ylcarbamoyl)-3,4,5,6-tetrachlorobenzoic acid hydrochloride” for “test compound”, “media. Samples were then doped with 10.0 μM FeSO4 with samples with no test compound to examine effects of 10.0 μM FeSO4 on biofilm formation.” for “media.”
# S. epidermidis [3] = test: Inhibition of S. epidermidis biofilm formation (crystal violet); type: cell-based, Staphylococcus epidermidis; settings: for IC50: concentration that inhibits 50% biofilm development; for ability to inhibit biofilm formation: 100 μM (highest concentration tested)
# Experimental: as §1, §4, §5
# as §5, with “2-(2-amino-1H-benzo[d]imidazol-6-ylcarbamoyl)-3,4,5,6-tetrachlorobenzoic acid hydrochloride” for “test compound”, “media. Samples were then doped with 10.0 μM FeSO4 with samples with no test compound to examine effects of 10.0 μM FeSO4 on biofilm formation.” for “media.”
# [4] = tested on: vancomycin-resistant Enterococcus faecium (VRE); test: Dispersion of preformed VRE (E. faecium) biofilm; type: cell-based; settings: concentration that disperses 50% of a pre-formed biofilm
# Experimental: as §1, §2, §3
# [5] = tested on: vancomycin-resistant Enterococcus faecium (VRE); test: Inhibition of VRE (E. faecium) biofilm formation (crystal violet); type: cell-based; settings: for ability to inhibit biofilm formation: 100 μM (highest concentration tested)
# Experimental: as §1, §4, §5
# as §5, with “2-(2-amino-1H-benzo[d]imidazol-6-ylcarbamoyl)-3,4,5,6-tetrachlorobenzoic acid hydrochloride” for “test compound”, “media. Samples were then doped with 10.0 μM FeSO4 with samples with no test compound to examine effects of 10.0 μM FeSO4 on biofilm formation.” for “media.”
# S. epidermidis [6] = test: Dispersion of preformed S. epidermidis biofilm; type: cell-based, Staphylococcus epidermidis; settings: concentration that disperses 50% of a pre-formed biofilm
# Experimental: as §1, §2, §3
# [7] = Divalent zinc binding via 1H NMR spectroscopy; settings: 0, 0.5, 1.0 equivalents ZnCl2; DMSO
# Experimental: Given this Zn(II)-dependence, the ability of 3 to bind zinc directly was determined to ascertain if the mechanism was potentially occurring via a Zn(II)-binding mechanism. To answer this question, an ^1H NMR binding experiment was performed in which the chemical shifts of 3 were measured in the presence of 0 equivalents, 0.5 equivalents, and 1.0 equivalents ZnCl2. […] As a control, the same experiment was performed with FeSO4.
# Procedure to Determine the Divalent Zinc Binding Effects of Test Compounds via ^1H NMR Spectroscopy:
# ^1H NMR Spectra were obtained of the test compounds in DMSO on a 400 MHz NMR in the absence and in the presence of one equivalent of ZnCl2. 2-(2-amino-1H-benzo[d]imidazol-5-ylcarbamoyl)-3,4,5,6-tetrachlorobenzoic acid hydrochloride was tested at a 228 mM. 2,3,4,5-tetrachloro-6-(phenylcarbamoyl)benzoic acid was tested at 275 mM. 1H-benzo[d]imidazol-2-amine hydrochloride was tested at 649 mM.
# MRSA [8] = test: Inhibition of MRSA biofilm formation (crystal violet); type: cell-based, Staphylococcus aureus; settings: FeSO4 alone, no test compound
# [9] = tested on: E. faecium, MRSA and S. epidermidis; test: Mitigating effects of zinc on biofilm formation inhibition; type: cell-based; settings: 200.0 μM ZnCl2 alone, no test compound
# Excerpt: Next, Zn(II) homeostasis was examined. Zn(II) has been implicated in the pathogenesis of Gram-positive bacterial infections and may be an important regulator of biofilm formation (Conrady, D. G.; Brescia, C. C.; Horii, K.; Weiss, A. A.; Hassett, D. J.; Herr, A. B. Proceedings of the National Academy of Sciences of the United States of America 2008, 105, 19456-19461).
# Procedure to Determine the Mitigating Effects of Zinc on E. faecium, MRSA and S. epidermidis Biofilm Formation Inhibition Induced by 2-(2-Amino-1H-Benzo[d]Imidazol-6-Ylcarbamoyl)-3,4,5,6-Tetrachlorobenzoic Acid Hydrochloride:
# as §5, with “50.0 μM 2-(2-amino-1H-benzo[d]imidazol-6-ylcarbamoyl)-3,4,5,6-tetrachlorobenzoic acid hydrochloride” for “predetermined concentrations of the test compound”, “media. Samples were then doped with 25.0, 50.0, 75.0, 100.0, 150.0 and 200.0 μM ZnCl2 with controls in which no test compound was added to examine effects of 200.0 μM ZnCl2 on biofilm formation.” for “media.”
# [10] = VRE, concentration that inhibits 50% biofilm development, read-out: IC50
EC50 (MRSA [1]; read-out: EC50 (converted)) [µM],IC50 (MRSA [2]; read-out: IC50) [µM],IC50 (S. epidermidis [3]) [µM],EC50 ([4]; read-out: EC50 (converted)) [µM],"IC50 [5, 10] [µM]",EC50 (S. epidermidis [6]) [µM],SMILES,further results
6.6,1.5 ± 0.4,1.9 ± 0.4,280,210 ± 35,19,Nc1nc2ccc(NC(=O)[C@H]3[C@@H](C(=O)O)C4(Cl)C(Cl)=C(Cl)C3(Cl)C4(Cl)Cl)cc2[nH]1 (relative stereo) [Compound 4],–
205,69 ± 2.7,240 ± 20,94,0.9 ± 0.3,260,CC(C)(CC(=O)O)CC(=O)Nc1ccc2nc(N)[nH]c2c1 [Compound 7],–
48,42 ± 2.4,170 ± 14,230,1.9 ± 0.5,180,Nc1nc2ccc(N3C(=O)CC4(CCC4)CC3=O)cc2[nH]1 [Compound 14],–

# Second part, the compound before the results:
SMILES,EC50 (MRSA [1]; read-out: EC50 (converted)) [µM],IC50 (MRSA [2]; read-out: IC50) [µM],IC50 (S. epidermidis [3]) [µM],EC50 ([4]; read-out: EC50 (converted)) [µM],"IC50 [5, 10] [µM]",EC50 (S. epidermidis [6]) [µM],further results
"Nc1nc2ccc(NC(=O)[C@@H]3C4C=CC(C4)[C@@H]3C(=O)O)cc2[nH]1 (stereo partly drawn) [Compound 5, (2S,3R)-3-(2-amino-1H-benzo[d]imidazol-6-ylcarbamoyl)bicyclo[2.2.1]hept-5-ene-2-carboxylic acid hydrochloride]",–,–,–,–,–,–,EC50 (MRSA [1]; Staphylococcus aureus): 63 µM; IC50 (MRSA [2]; Staphylococcus aureus): 16 ± 2.9 µM; IC50 (S. epidermidis [3]; Staphylococcus epidermidis): 4.1 ± 2 µM; EC50 [4]: 107 µM; IC50 [5]: 63 ± 9.1 µM; EC50 (S. epidermidis [6]; Staphylococcus epidermidis): 45 µM
"Nc1nc2ccc(NC(=O)c3cccc4cccc(C(=O)O)c34)cc2[nH]1 [Compound 9, 8-(2-amino-1H-benzo[d]imidazol-6-ylcarbamoyl)-1-naphthoic acid hydrochloride]",–,–,–,–,–,–,EC50 (MRSA [1]; Staphylococcus aureus): > 300 µM; IC50 (MRSA [2]; Staphylococcus aureus): > 300 µM; IC50 (S. epidermidis [3]; Staphylococcus epidermidis): 6.2 ± 1.2 µM; EC50 [4]: 6.3 µM; IC50 [5]: 0.9 ± 0.4 µM; EC50 (S. epidermidis [6]; Staphylococcus epidermidis): 30 µM
Nc1nc2ccc(N3C(=O)c4cccc5cccc(c45)C3=O)cc2[nH]1 [Compound 15],> 300,> 300,24 ± 6.3,110,69 ± 10,81,–
Nc1nc2ccc(N3C(=O)[C@@H]4[C@H](C3=O)C3(Cl)C(Cl)=C(Cl)C4(Cl)C3(Cl)Cl)cc2[nH]1 [Compound 16],9.5,5.7 ± 0.5,1.5 ± 0.5,31,7.4 ± 1.7,33,–
"Nc1nc2ccccc2[nH]1 [Compound 17, reference compound]",–,–,–,–,–,–,"ability to inhibit biofilm formation (MRSA [2]): Neither compound was able to inhibit; ability to inhibit biofilm formation (S. epidermidis [3]): Neither compound was able to inhibit; ability to inhibit biofilm formation ([5]; VRE): Neither compound was able to inhibit; zinc binding, change of 1H NMR signals [7]: no change"
"O=C(O)c1c(Cl)c(Cl)c(Cl)c(Cl)c1C(=O)Nc1ccccc1 [Compound 18, reference compound]",–,–,–,–,–,–,"ability to inhibit biofilm formation (MRSA [2]): Neither compound was able to inhibit; ability to inhibit biofilm formation (S. epidermidis [3]): Neither compound was able to inhibit; ability to inhibit biofilm formation ([5]; VRE): Neither compound was able to inhibit; zinc binding, change of 1H NMR signals [7]: no change"
"O=S(=O)([O-])[O-].[Fe+2] [FeSO4, reference compound]",–,–,–,–,–,–,"increase of biofilm formation (biofilm mass) (S. epidermidis [3]; FeSO4 alone, no test compound): 1.25 times; increase of biofilm formation (biofilm mass) ([5]; E. faecium, FeSO4 alone, no test compound): 1.37 times; increase of biofilm formation (biofilm mass) (MRSA [8]): 1.28 times"
"[Cl-].[Cl-].[Zn+2] [ZnCl2, reference compound]",–,–,–,–,–,–,effect on biofilm formation [9]: no effect on biofilm formation
